These results are taken from US12459921B2, “Isoindoline compound, preparation method, pharmaceutical composition and use thereof” (SHANGHAI INSTITUTE OF MATERIA MEDICA, CHINESE ACADEMY OF …, priority 2018, dated 2025).

Where only a bound is given, the exact number is not on record here.

For this experiment, the system named is MM.1S cells. Put plainly: Inhibitory effect on the proliferation of MM.1S, MTS cell viability test. The settings on record: Homo sapiens, MM1.S, 168 h, multiple myeloma MM.1S cells, 7 days incubation, read-out: Tumor cell inhibitory activity. Type of experiment: cell-based. The method, boiled down:
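MM.1S cells (20,000/well, RPMI 1640 with 10% FBS) exposed to 5-fold compound dilutions at 0.2% DMSO for 7 days at 37° C, 5% CO2. MTS added for 3-4 h; OD490-OD690 gave inhibition versus DMSO, IC50 fitted, mean of three experiments.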
With `N[C@@H](CCCc1cccc2c1CN(C1CCC(=O)NC1=O)C2=O)C(=O)NC12CC3CC(CC(C3)C1)C2` (stereo partly drawn) [Example 174, (2S)—N-((3R,5R,7R)-adamantane-1-)-2-amino-5-(2-(2,6-dioxopiperidine-3-)-1-oxoisoindoline-4-)pentanamide], the IC50 is > 20 µM.

On to `C[C@]1(N2C(=O)c3cccc(OCCCN4CCC(C#N)(c5cccc(OC(F)(F)F)c5)CC4)c3C2=O)CCC(=O)NC1=O` [Example 62, (S)-1-(3-((2-(3-methyl-2,6-dioxopiperidine-3-)-1,3-dioxoisoindoline-4-)oxy)propyl)-4-(3-(trifluoromethoxy)phenyl)piperidine-4-carbonitrile], for which the IC50 lay in the range of 1 to 20 µM. Next, `N#CC1(c2ccc(Cl)c(Cl)c2)CCN(CCCCc2cccc3c2CN(C2CCC(=O)NC2=O)C3=O)CC1` (stereo not drawn) [Example 272, 4-(3,4-dichlorophenyl)-1-(4-(2-(2,6-dioxopiperidin-3-yl)-1-oxoisoindoline-4-yl)butyl)piperidine-4-carbonitrile]: 0.1 to 1 µM; `O=C1CCC(N2Cc3c(OCCCCN4CCN(c5cccc(Cl)c5Cl)CC4)cccc3C2=O)C(=O)N1` (stereo not drawn) [Example 240, 3-(4-(4-(4-(2,3-dichlorophenyl)piperazine-1-yl)butoxy)-1-oxoisoindoline-2-yl)piperidine-2,6-dione]: 1 to 20 µM; `N#CC1(c2cc(Cl)cc(Cl)c2)CCN(CCCCCc2cccc3c2CN(C2CCC(=O)NC2=O)C3=O)CC1` (stereo not drawn) [Example 251, 4-(3,5-dichlorophenyl)-1-(5-(2-(2,6-dioxopiperidin-3-yl)-1-oxoisoindoline-4-yl)pentyl)piperidine-4-carbonitrile]: 0.1 to 1 µM. As to `O=C1CCC(N2Cc3c(CCCCCN4CCC5(CC4)OC(=O)c4cc(Cl)ccc45)cccc3C2=O)C(=O)N1` (stereo not drawn) [Example 129, 3-(4-(5-(5-chloro-3-oxo-3H-spiro[isobenzofuran-1,4′-piperidine]-1′-)pentyl)-1-oxoisoindoline-2-)piperidine-2,6-dione], the IC50 is 0.1 to 1 µM. The same measure for `C[C@]1(N2C(=O)c3cccc(OCCCN4CCN(c5cccc(Cl)c5Cl)CC4)c3C2=O)CCC(=O)NC1=O` [Example 27, (S)-4-(3-(4-(2,3-dichlorophenyl)piperazine-1-)propoxy)-2-(3-methyl-2,6-dioxopiperidine-3-)isoindoline-1,3-dione]: 1 to 20 µM; for `O=C1CCC(N2Cc3c(CCCCN4CCN(c5noc6ccccc56)CC4)cccc3C2=O)C(=O)N1` (stereo not drawn) [Example 228, 3-(4-(4-(4-(benzisoxazole-3-yl)piperazine-1-yl)butyl)-1-oxoisoindoline-2-yl)piperidine-2,6-dione]: 1 to 20 µM. Take `N#CC1(c2ccc(O[C@H]3CCOC3)cc2)CCN(CCCCCc2cccc3c2CN(C2CCC(=O)NC2=O)C3=O)CC1` (stereo partly drawn) [Example 252, 1-(5-(2-(2,6-dioxopiperidin-3-yl)-1-oxoisoindolin-4-yl)pentyl)-4-(4-(((S)-tetrahydrofuran-3-yl)oxy)phenyl)piperidine-4-carbonitrile]: the IC50 lay in the range of 0.1 to 1 µM.

For the molecule `N#CC1(c2ccccc2)CCN(CCCOc2cccc3c2CN(C2CCC(=O)NC2=O)C3=O)CC1` (stereo not drawn) [Example 53, 1-(3-((2-(2,6-dioxopiperidine-3-)-1-oxoisoindoline-4-)oxy)propyl)-4-phenylpiperidine-4-carboxonitrile], the IC50 is < 0.1 µM. The same measure for `N#CC1(c2cccc(OC(F)(F)F)c2)CCN(CCCCCc2cccc3c2CN(C2CCC(=O)NC2=O)C3=O)CC1` (stereo not drawn) [Example 94, 1-(5-(2-(2,6-dioxopiperidine-3-)-1-oxoisoindoline-4-)pentyl)-4-(3-trifluoromethoxyphenyl) piperidine-4-carbonitrile]: < 0.1 µM. Next, `O=C1CCC(N2Cc3c(CCCCCN4CCC5(CC4)COc4ccccc45)cccc3C2=O)C(=O)N1` (stereo not drawn) [Example 145]: 0.1 to 1 µM; `O=C1CCC(N2Cc3c(CCCCCN4CCCc5ccc(Cl)cc54)cccc3C2=O)C(=O)N1` (stereo not drawn) [Example 109, 3-(4-(5-(7-chloro-3,4-dihydroquinoline-1(2H))pentyl)-1-oxoisoindoline-2-)piperidine-2,6-dione]: 1 to 20 µM. Turning to `[2H]c1c([2H])c([2H])c(N2CCN(CCCCCCc3cccc4c3CN(C3CCC(=O)NC3=O)C4=O)CC2)c([2H])c1[2H]` (stereo not drawn) [Example 209, 3-(1-oxo-4-(6-(4-(phenyl-d5)piperazine-1-)hexyl)isoindoline-2-)piperidine-2,6-dione], the IC50 is < 0.1 µM. The same measure for `O=C1CCC(N2Cc3c(CCCCN4CCN(c5cc(Cl)cc(Cl)c5)CC4)cccc3C2=O)C(=O)N1` (stereo not drawn) [Example 223, 3-(4-(4-(4-(3,5-dichlorophenyl)piperazine-1-yl)butyl)-1-oxoisoindoline-2-yl) piperidine-2,6-dione]: < 0.1 µM; for `O=C1CCC(N2Cc3c(CCCCN4CCN(c5c(Cl)cccc5Cl)CC4)cccc3C2=O)C(=O)N1` (stereo not drawn) [Example 48, 3-(4-(4-(4-(2,6-dichlorophenyl)piperazine-1-)butyl)-1-oxoisoindoline-2-)piperidine-2,6-dione]: < 0.1 µM; for `O=C1CCC(N2Cc3c(CCCCCN4CCC5(CC4)OC(=O)Nc4ccccc45)cccc3C2=O)C(=O)N1` (stereo not drawn) [Example 125, 3-(1-oxo-4-(5-(2-oxo-1,2-dihydrospiro[benzo[d][1,3]oxazine-4,4′-piperidine]-1′-)pentyl)isoindoline-2-)piperidine-2,6-dione]: 0.1 to 1 µM. Next, `N[C@@H](CCCc1cccc2c1CN(C1CCC(=O)NC1=O)C2=O)c1nc2ccccc2[nH]1` (stereo partly drawn) [Example 199, 3-(4-((S)-4-amino-4-(1H-benzo(d)imidazole-2-)butyl)-1-oxoisoindoline-2-)piperidine-2,6-dione]: > 20 µM. Next, `O=C1CCC(N2Cc3c(OCCCCC(=O)N4CCC5(CC4)OCc4ccc(Cl)cc45)cccc3C2=O)C(=O)N1` (stereo not drawn) [Example 152, 3-(4-((5-(6-chloro-3H-spiro[isobenzofuran-1,4′-piperidine]-1′-)-5-oxopentyl)oxy)-1-oxoisoindoline-2-)piperidine-2,6-dione]: < 0.1 µM.

In the case of `N#CC1(c2cccc(Cl)c2)CCN(CCCCc2cccc3c2CN(C2CCC(=O)NC2=O)C3=O)CC1` (stereo not drawn) [Example 93, 4-(3-chlorophenyl)-1-(4-(2-(2,6-dioxopiperidine-3-)-1-oxoisoindoline-4-)butyl)piperidine-4-carbonitrile], the IC50 was < 0.1 µM. The same measure for `O=C1CCC(N2Cc3c(CCCCCN4CCOc5cc(Br)ccc54)cccc3C2=O)C(=O)N1` (stereo not drawn) [Example 110, 3-(4-(5-(7-bromo-2,3-dihydro-4H-benzo[b][1,4]oxazine-4-)pentyl)-1-oxoisoindoline-2-)piperidine-2,6-dione]: < 0.1 µM; for `N#CC1(c2cccc(Cl)c2)CCN(C(=O)CCCCOc2cccc3c2CN(C2CCC(=O)NC2=O)C3=O)CC1` (stereo not drawn) [Example 87, 4-(3-chlorophenyl)-1-(5-((2-(2,6-dioxopiperidine-3-)-1-oxoisoindoline-4-)oxy)valeryl)piperidine-4-carbonitrile]: < 0.1 µM; for `COc1ccc(N2CCN(CCCCc3cccc4c3CN(C3CCC(=O)NC3=O)C4=O)CC2)cc1` (stereo not drawn) [Example 46, 3-(4-(4-(4-(4-methoxyphenyl)piperazine-1-)butyl)-1-oxoisoindoline-2-)piperidine-2,6-dione]: 0.1 to 1 µM. The same measure for `O=C1CCC(N2Cc3c(OCCCNC(=O)N4CCN(c5cccc(Cl)c5Cl)CC4)cccc3C2=O)C(=O)N1` (stereo not drawn) [Example 34]: 1 to 20 µM.
